# What was measured:
# [1] = system: MGMT-kB1-Luc reporter construct induced by NF-κB/p65; assay: Luciferase reporter assay, MGMT-kB1-Luc co-transfected with NF-κB/p65; format: cell-based, human
# Protocol: Transient transfections were performed in 6-well plates, using the FuGene6 transfection reagent (Roche Diagnostics GmbH, Mannheim, Germany), according to the manufacturer's instructions. U87MG, T98G, and A172 cells were transfected with pNF-κB-Luc reporter Vector (Clontech, Palo Alto, Calif.), while RG2 and U87MG were transfected with MGMT-Luc [construct p-954/+24 mL [Biswas T. et al. Oncogene 18:525-32 (1999)] kindly provided by Sankar Mitra] (1 μg/well). CMVβ-galactosidase expression vector (CMVβgal-Clonthech) was included (0.1 μg/well) in each transfection to normalize transfection efficiency. HEK293 cells were transfected with CMVβgal alone or along with one or more of the following plasmids: CMVp65, CMVΔNIκB, CMVp50, CMVcJun. CMVp65 and CMVΔNIκB plasmids were kindly provided by Prof. Yinon. Ben-Neriah (The Hebrew University, Jerusalem, Israel), CMVp50 and CMVcJun were kindly provided by Dr. Danielle Melloul (Hadassah Hebrew University Medical Center, Jerusalem, Israel).
# At 24 hrs following transfection, the cells were lysed for 15 min on ice with 200 μl of luciferase lysis buffer (Promega, Madison, Wis.). Luciferase assays were carried out using a Promega assay kit and a luminometer (EG&G Berthold, Bad Wildbad, Germany). The activity was normalized to β-galactosidase activity (Promega) and plotted as the mean±s.d. of triplicates from a representative experiment.
# For the cloning of the MGMT-luc constructs the reporter vector p-TA-Luc (Clontech, Palo Alto, USA) was used. The plasmid contains TATA box motif upstream to a luciferase reporter gene. A double stranded DNA corresponding to four repeats of each sequence as indicated by FIG. 8A (also denoted by SEQ ID NO. 44, 45, 46 and 47), was synthesis by syntezza LTD and ligated upstream to the TATA box.
# To test the activity of these sites, several luciferase reporter genes bearing four copies of either intact or mutant sequence, of each of the two NF-κB sites (NF-κB1 and NF-κB2), were constructed as indicated in Experimental procedures. […] An inhibition of approximately 50% was observed using 100 nM ODN. Negative control using the CMVΔNIκB (ΔN)-Luc construct as well as positive control using the canonical HIV-κB-Luc reporter construct, confirmed validity of the data.
# Induction of over expression of NF-κB in HEK 293T cells by transfection of a CMV-NF-κB/p65 generated a 50-fold elevation in luciferase expression driven by the Co-transfected reporter construct MGMT-kB1-Luc. […] Inhibition of approximately 90% was induced by 150 nM LMODN. […] No inhibition was detected when a mutant LMODN was introduced into the cells, indicating the specificity of MGMT-kB1-LMODN (of SEQ ID NO. 40 and 41). […] 3 (HIV-κB-Luc construct).
# [2] = target: T1, NF-κB/p65 (Homo sapiens, UniProt Q04206); assay: Gel electrophoretic mobility shift assay (EMSA) with HeLa nuclear extracts; format: binding; settings: nuclear extracts from Hela cells exposed to TNFα (200 u/ml)
# T1 construct: 10 μg of nuclear extracts with 0.3 ng of ^32P-labeled synthetic double-stranded oligodeoxynucleotides; endogenous in cells; host or cells: HeLa cells treated with TNFα (nuclear extract)
# T1 sequence (Q04206 whole entry): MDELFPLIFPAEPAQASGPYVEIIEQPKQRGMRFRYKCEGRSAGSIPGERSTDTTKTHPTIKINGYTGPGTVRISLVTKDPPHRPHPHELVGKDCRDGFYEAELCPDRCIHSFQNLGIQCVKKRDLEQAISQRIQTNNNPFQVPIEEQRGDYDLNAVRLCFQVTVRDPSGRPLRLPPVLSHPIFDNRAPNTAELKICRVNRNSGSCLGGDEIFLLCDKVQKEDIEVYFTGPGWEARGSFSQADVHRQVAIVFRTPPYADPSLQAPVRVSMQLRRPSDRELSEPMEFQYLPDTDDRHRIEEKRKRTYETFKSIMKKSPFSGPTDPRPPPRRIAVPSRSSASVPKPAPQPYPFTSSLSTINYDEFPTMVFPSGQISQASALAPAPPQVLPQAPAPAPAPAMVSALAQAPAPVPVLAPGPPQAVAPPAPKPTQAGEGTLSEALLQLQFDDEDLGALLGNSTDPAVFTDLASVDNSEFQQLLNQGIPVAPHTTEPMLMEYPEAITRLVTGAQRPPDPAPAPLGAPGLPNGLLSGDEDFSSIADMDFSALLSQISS
# Protocol: Nuclear extracts were prepared from HeLa cells treated with 200 units/ml of TNFα for 15 min. Oligodeoxynucleotides spanning the NF-κB binding site within the MGMT promoter (also denoted by SEQ ID NO. 4 and 5), with or without a C-G mutation (also denoted by SEQ ID NO. 6 and 7) or the consensus NF-κB site from HIV LTR (SEQ ID NO. 3, also shown in FIG. 1B), were end-labeled by a fill-in reaction using the Klenow fragment of DNA polymerase (New England Biolabs, Beverly, Mass.). DNA binding reactions were performed by incubation on ice for 15 min of 10 μg of nuclear extracts with 0.3 ng of ^32P-labeled synthetic double-stranded oligodeoxynucleotides in the presence of 10 mM Hepes, pH 7.9, 10% glycerol, 50 mM KCl, 5 mM MgCl2, 5 mM dithiothreitol, 2 μg of poly (dI·dC), and 0.1% Nonidet P-40. Competitor oligonucleotides were incubated in 100-fold molar excess and preincubated in the reaction mixtures for 10 min before addition of the radiolabeled probe. For supershift experiments, 1 μl of p65 antibody (MAB16200, Chemicon International Inc., Temecula, Calif.) was added during the preincubation period.
# To explore whether the NF-κB sites found within the MGMT promoter actually bind NF-κB, the inventors next performed an EMSA analysis of nuclear extracts from HeLa cells treated with TNFα and with labeled DNA fragments spanning the region containing the NF-κB motif. As shown by FIG. 1C, this process generated a nuclear binding factor specific for these regions (FIG. 1C, lanes 5 and 9), of the same size as the complex attached to the consensus HIV-κB site as also denoted by SEQ ID NO. 3 (FIG. 1C, lane 2) as indicated by the black arrows. […] Binding specificity was confirmed by competition with cold HIV-κB oligonucleotide. […] This confirmed that p65 binds to both NF-κB putative sites. The upper band in lane 9 (FIG. 1C) is not the same size as the NF-κB complex attached to the canonical HIV-κB oligonucleotide (FIG. 1C, lane 2). It was neither shifted when incubated with NF-κB/p65 antibodies (lane 10), nor abolished in the presence of unlabeled HIV-κB probe (FIG. 1C, lane 11). Based on the finding that the MGMT-κB2 binding site overlaps the Sp1 site, the inventors speculate that this complex may further contain Sp1. This speculation is also supported by its size, which is the same as that of the complex attached to the Sp1 oligonucleotide (FIG. 1C, lane 1).
# [3] = system: T98MG gliomas cell line; format: cell-based, human; settings: 2.5 mM TMZ without LMODN
# Protocol: T98MG glioma cell line cells were treated with increasing doses of the decoy ODN's of the invention. Double stranded ODNs (30mers), corresponding to MGMT-κB1 binding site (as also denoted by SEQ. ID. NO. 1), and control ODNs were purchased from IDT. Each strand of ODN was thirty-mers and contained six LNA nucleotides. The following ODNs were used: MGMT-kB1forward: 5′---+T+AATGGGG+ACTTTAC GGG+[…]+A+T---3′ (as also denoted by SEQ. ID. NO. 40) with or without the 5′ end labeled with carboxyfluorescein-5-succimidyl ester (FAM). The MGMT-kB1 reverse ODN: 5′---+A+TTCTGTA+[…]+[…]+T+A---3′ as also denoted by SEQ ID NO. 41). Control forward: 5′---+T+AG TGT CG+A CTT CAC TCT+ACT TGA CAG A+A+T---3′ (as also denoted by SEQ ID NO. 42), control reverse: 5′---+A+TT CTG TC+A AGT AGA GTG+AAG TCG ACA C+T+A---3′ as also denoted by SEQ ID NO. 43). It should be noted that (+designated as nucleotide containing an LNA modification).
# The viability of the cells was tested 24-48 hrs later by CellTiter-Blue assay (Promega®). The assay was carried out according to the supplier's instructions. Briefly, the assay is based on the ability of living cells to convert a redox dye (resazurin) into a fluorescent end product (resorufin). Cell viability estimation is done by measuring the fluorescent intensity of resorufin (ex. 560 nm, em. 590 nm) using a fluorescent microplate reader.
# The inventors next tested the potential of the decoy LMODN molecules of the invention to sensitize tumor cells to alkylating agents and thereby improve their efficacy as anti-cancerous treatment. Therefore, several human cancer cell lines were treated with alkylating agents with increasing doses of MGMT-kB1-ODN followed by cell viability tests. First, the sensitivity of each cell line to several alkylating agents, mainly temozolomide (TMZ) and BCNU was calibrated. At 24 hrs following sowing, cells were exposed for two hours to increasing concentrations of the alkylating agent and viability of the cells was tested 24-48 hrs later by CellTiter-Blue assay (Promega®). To test the potential of MGMT-kB1-LMODN to sensitize tumor cells to alkylating agents in-vitro, increasing doses of LMODNs MGMT-kB1 forward and reverse as denoted by SEQ ID NO. 40 and 41, respectively), with or without the 5′ end labeled with carboxyfluorescein-5-succimidyl ester (FAM), as well as the control LMODNs (as denoted by SEQ ID NO. 42 and 43), were liposomally introduced (Lipofectamine 2000, Invitrogen) to various tumor cancer cells. Twenty four hours later, cells were treated with the different doses of alkylating agents as calibrated before.
# FIG. 9 represents an example of T98MG gliomas cell line sensitized to alkylating agents in response to treatment with the LMODN's of the invention. […]
Compound,binding of NF-κB in nuclear extract to 32P-labeled probe (in words) [2],also measured
"SEQ ID NO. 36 and 37: double stranded LNA modified ODN decoy of MGMT-kB1 site; forward SEQ ID NO. 36, reverse SEQ ID NO. 37 (sense TAAGAGGGACTTTACGGGACTTTACTACAT; antisense ATGTAGTAAGTCCCGTAAAGTCCCTCTTA; LNA modifications, chemistry not fully specified; listed as Homo sapiens) [double stranded LNA modified ODN decoy of MGMT-kB1 site; 37]",–,"inhibition of luciferase activity ([1]; 100 nM ODN, HEK293T, MGMT-κB1 reporter construct + NF-κB/p65 (FIG. 7)): approximately 50%; effect on luciferase activity driven by MGMT-kB1 reporter (in words) ([1]; HEK293T co-transfected with MGMT-kB1 reporter and NF-κB/p65): decreased the luciferase activity in a dose-dependent manner"
"MGMT-κB2 Mut: MGMT-κB2 oligonucleotide with mutated site (C-to-G substitution) (DNA GGCGGGAACACGGCGCCCCGCCCG; DNA, backbone not given here; further chemistry not fully specified; listed as Homo sapiens)",Specific binding was not observed,–
"MGMT-κB2: EMSA oligodeoxynucleotide probe spanning the NF-κB binding site MGMT-κB2 within the MGMT promoter (DNA GGCGGGAACACCCCGCCCCGCCCG; DNA, backbone not given here; further chemistry not fully specified; listed as Homo sapiens)",formation of complexes of a similar size,–
"MGMT-κB1 Mut: MGMT-κB1 oligonucleotide with mutated site (C-to-G substitution) (DNA TGATGGCTTCTGTAAAGTCGGCATCTCCAAATAAGGTCAC; DNA, backbone not given here; further chemistry not fully specified; listed as Homo sapiens)",Specific binding was not observed,–
"MGMT-κB-1: EMSA oligodeoxynucleotide probe spanning the NF-κB binding site MGMT-κB1 within the MGMT promoter (DNA TGATGGCTTCTGTAAAGTCCCCATCTCCAAATAAGGTCAC; DNA, backbone not given here; further chemistry not fully specified; listed as Homo sapiens)",formation of complexes of a similar size,–
"HIV-κB: consensus NF-κB site from HIV LTR, control probe (DNA GGCTTCAGAGGGGACTTTCCGAGA; labeled probe, label not given here, further chemistry not given here; listed as Homo sapiens)",formation of complexes of a similar size,–
"Cn1nnc2c(C(N)=O)ncn2c1=O [TMZ, temozolomide]",–,live cells [3]: 60%
